Measured values from patent publication US9428465B2, “Acid ceramidase inhibitors and their use as medicaments” (FONDAZIONE ISTITUTO ITALIANO DI TECHNOLOGIA, priority 2012, dated 2016).

Tests used:
SW403 cells = test: SW403 cell viability, MTT assay; type: cell-based, human
Method: Cells were seeded in 12- or 96-well plates in complete medium 24 hrs before treatment and then incubated for 24 hrs (single treatment) or 72 hrs (multiple treatments) with different drug concentrations in media without serum. Cell viability was then evaluated.
Alternatively, cell viability was assessed measuring mitochondrial functionality by the MIT assay, which is based on the reduction of the soluble tetrazolium salt MTT [(3-(4,5-dimethylthiazol-2-yl)-2,5-diphenyltetrazolium bromide] into insoluble formazan by mitochondria. Briefly, after treatment, cells were washed with PBS and incubated with 0.5 mg/ml, MTT for 2 hrs at room temperature, MTT reduction was quantified by absorbance at 570 nm using a UV-visible plate reader.

[1] = biological target: human acid ceramidase (hAC) (Homo sapiens (Human), UniProt Q13510); test: Human acid ceramidase (hAC) activity assay, UPLC/MS of lauric acid; type: biochemical; conditions: human acid ceramidase, 50 μM N-lauroyl ceramide, pH 4.5
Chain of human acid ceramidase (hAC) (Q13510 143-395): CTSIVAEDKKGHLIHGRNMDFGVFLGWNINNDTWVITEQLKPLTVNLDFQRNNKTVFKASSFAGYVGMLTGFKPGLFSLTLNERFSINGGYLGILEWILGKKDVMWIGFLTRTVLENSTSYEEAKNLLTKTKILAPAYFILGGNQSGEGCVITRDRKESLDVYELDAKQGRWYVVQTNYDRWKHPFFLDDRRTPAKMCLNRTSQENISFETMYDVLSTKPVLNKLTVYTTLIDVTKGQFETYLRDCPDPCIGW
Chain of human acid ceramidase (hAC) (Q13510 22-142): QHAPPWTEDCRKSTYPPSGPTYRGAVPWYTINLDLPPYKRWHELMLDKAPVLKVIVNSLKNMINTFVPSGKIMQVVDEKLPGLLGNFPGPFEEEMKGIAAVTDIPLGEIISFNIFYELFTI
Method: Human acid ceramidase (hAC) cDNA was purchased from Open Biosystem (clone ID 3923451) and subcloned in the mammalian expression vector pCDNA3.1, containing the neomycin resistance gene. The cell line HEK293 was transfected with hAC-pCDNA3.1 construct using JetPEI reagent (Polypus Transfection™, Illkirch, FR) following the manufacturer instructions. A stable cell line of hAC-overexpressing HEK293 was generated by selection with G418 (1 mg/ml) and cell clones were derived by limited dilution plating. hAC-expressing clones were analyzed by western blot.
Hek293 cells overexpressing hAC were suspended in 20 mM Tris HCl (pH 7.5) containing 0.32M sucrose, sonicated and centrifuged at 800×g for 15 min at 4° C. The supernatants were centrifuged again at 12,000×g for 30 min at 4° C. The pellets were suspended in phosphate-buffered saline (PBS) and subjected to 2 freeze-thaw cycles at −80° C. The suspensions were centrifuged at 105,000×g for 1 h at 4° C. The supernatants containing hAC were kept at −80° C. until use. Protein concentration was measured using the bicinchoninic acid (BCA) assay (Pierce).
A hAC protein preparation (10 μg) was preincubated with inhibitors (final DMSO concentration 1%) in assay buffer (100 mM sodium phosphate, 0.1% Nonidet P-40, 150 mM NaCl, 3 mM DTT, 100 mM sodium citrate, pH 4.5) for 30 min at 37° C. Reactions were started by the addition of 50 μM N-lauroyl ceramide (Nu-Chek Prep, Elysian, Minn.) and carried on for 30 min at 37° C. Reactions were stopped by addition of a mixture of chloroform/methanol (2:1, vol/vol) containing 1 nmol 11-lauroleic acid (NuChek Prep). The organic phases were collected, dried under nitrogen and analyzed by UPLC/MS (Acquity, Waters) in the negative-ion mode monitoring the reaction product (lauric acid, m/z=199) using 11-lauroleic acid as internal standard.
Lipids were eluted on an Acquity UPLC BEH C18 column (50 mm length, 2.1 mm i.d., 1.7 μm pore size, Waters) column at 0.5 mL-min^−1 for 1.5 min with a gradient of acetonitrile (CH3CN) and water, both containing 0.25% acetic acid and 5 mM ammonium acetate (70% to 100% CH3CN in 0.5 min, 100% CH3CN for 0.5 min, 70% CH3CN for 0.4 min). The column temperature was 40° C. Electrospray ionization (ESI) was in the negative mode, capillary voltage was 1 kV and cone voltage was 50 V. Nitrogen was used as drying gas at a flow rate of 500 L/h and at a temperature of 400° C.
The [M-H]^− ion was monitored in the selected-ion monitoring mode (m/z values: lauric acid 199, 11-lauroleic acid […]). Calibration curves were generated with authentic lauric acid (Nu Check Prep). Inhibition of acid ceramidase activity was calculated as reduction of lauric acid in the samples compared to vehicle controls. IC50 values were calculated by non-linear regression analysis of log [concentration]/inhibition curves using GraphPad Prism 5 (GraphPad Software Inc., CA, USA) applying a standard slope curve fitting.

## CCCCCCNC(=O)n1cc(Br)c(=O)[nH]c1=O [Example 5, 5-bromo-N-hexyl-2,4-dioxo-pyrimidine-1-carboxamide]
SW403 cells; 72 hrs, compound 30 μM + 5FU 300 nM
  interaction with 5FU in reducing cell viability (MTT assay): synergistic effect
SW403 cells; sub-chronic treatment 72 hrs, compounds 30 μM, 5FU 300 nM
  SW403 cell viability (MTT assay): reduced cell viability
[1]
  IC50: 35 nM
